What all share (assay type): cell-based
In one assay the test system is E. coli MP-9 ΔTolC. Briefly: MIC against E. coli MP-9 ΔTolC.
The subject of the next assay is E. faecalis ATCC 29212. Briefly: MIC against E. faecalis ATCC 29212.
The subject of another assay is S. aureus ATCC 29213. Briefly: MIC against S. aureus ATCC 29213.
Assay [1] has as its system E. coli MP-74 LptD mutant. Description: MIC against E. coli MP-74 LptD mutant.
Assay [2] has as its system S. aureus MP-549 msr(a) USA 300. Briefly: MIC against S. aureus MP-549 msr(a) USA 300. The following applies: S. aureus MP-549 msr(a) USA 300.
In the next assay the test system is S. pneumoniae ATCC 49619. Briefly: MIC against S. pneumoniae ATCC 49619.
The subject of a further assay is K. pneumoniae ATCC 10031. Briefly: MIC against K. pneumoniae ATCC 10031.
In another assay the test system is E. coli ATCC 25922. Briefly: MIC against E. coli ATCC 25922.
Another assay has as its system H. influenzae ATCC 49247. Description: MIC against H. influenzae ATCC 49247.
Another assay relates to S. pyogenes ATCC 19615. Description: MIC against S. pyogenes ATCC 19615.
[3] abbreviates: Enterococcus faecalis, ATCC29212, E. faecalis ATCC 29212, read-out: MIC.
[4] abbreviates: Klebsiella pneumoniae, ATCC10031, read-out: MIC.
[5] abbreviates: Escherichia coli, ATCC25922, read-out: MIC.
Setting [6] is: Haemophilus influenzae, ATCC49247, H. influenzae ATCC 49247, read-out: MIC.
The mark [7] stands for this setting: Staphylococcus aureus, ATCC29213, S. aureus ATCC 29213, read-out: MIC.
Setting [8] is: Streptococcus pneumoniae, ATCC49619, S. pneumoniae ATCC 49619, read-out: MIC.
The mark [9] stands for this setting: Streptococcus pyogenes, ATCC19615, S. pyogenes ATCC 19615, read-out: MIC.

Converted amounts (≈) assume the structure as drawn. Read-outs that look alike come from different tables or passages of the source.

Consider `CCC[C@@H]1C[C@@H](C(=O)N[C@@H]([C@H]2OC(SC)[C@H](O)C(O)C2O)C(C)(C)C(C)N=[N+]=[N-])N(C)C1` (single isomer, unassigned) [FSA-217021a], for which the MIC in the assay on E. coli MP-9 ΔTolC (Escherichia coli) is > 64 µg/mL; in the assay with E. faecalis ATCC 29212 (setting [3]), > 64 µg/mL; in the assay on S. aureus ATCC 29213 (S. aureus ATCC 29213), 4 µg/mL (≈ 8.45 µM); in assay [1] it was >64 µg/mL; in assay [2], 4 µg/mL (≈ 8.45 µM); in the assay with S. pneumoniae ATCC 49619 (S. pneumoniae ATCC 49619), 2 µg/mL (≈ 4.22 µM). Moreover, the MIC with K. pneumoniae ATCC 10031 (setting [4]) is > 64 µg/mL; with E. coli ATCC 25922 (setting [5]), > 64 µg/mL; in the assay on H. influenzae ATCC 49247 (setting [6]) it was > 64 µg/mL; in the assay with S. pyogenes ATCC 19615 (S. pyogenes ATCC 19615), 2 µg/mL (≈ 4.22 µM).

`CCC[C@@H]1C[C@@H](C(=O)N[C@@H]([C@H]2OC(SC)[C@H](O)C(O)C2O)C(C)(C)C(C)N=[N+]=[N-])N(C)C1` (single isomer, unassigned) [FSA-217021b]: the MIC in the assay with E. coli MP-9 ΔTolC was 32 µg/mL (≈ 67.6 µM); in the assay on E. faecalis ATCC 29212 (E. faecalis ATCC 29212), 64 µg/mL (≈ 135 µM); in the assay with S. aureus ATCC 29213 (S. aureus ATCC 29213) it was 0.25 µg/mL (≈ 0.528 µM); in [1] it was 8 µg/mL (≈ 16.9 µM); in assay [2] it was 0.25 µg/mL (≈ 0.528 µM); with S. pneumoniae ATCC 49619 (S. pneumoniae ATCC 49619), 0.12 µg/mL (≈ 0.253 µM). For the same compound, the MIC in the assay on K. pneumoniae ATCC 10031 was >64 µg/mL; in the assay with E. coli ATCC 25922, >64 µg/mL; with H. influenzae ATCC 49247 (H. influenzae ATCC 49247), 32 µg/mL (≈ 67.6 µM); in the assay with S. pyogenes ATCC 19615 (S. pyogenes ATCC 19615), 0.12 µg/mL (≈ 0.253 µM).

As to `CCC[C@@H]1C[C@@H](C(=O)N[C@H]([C@@H]2CCC(O)C2O)[C@H]2OC(SC)[C@H](O)C(O)C2O)N(C)C1` (single isomer, unassigned) [FSA-217039a], the MIC was > 64 µg/mL with E. coli MP-9 ΔTolC (Escherichia coli); > 64 µg/mL in the assay on E. faecalis ATCC 29212 (setting [3]); >64 µg/mL against S. aureus ATCC 29213 (S. aureus ATCC 29213); > 64 µg/mL in assay [1] (Escherichia coli); >64 µg/mL in [2]; 8 µg/mL (≈ 17.3 µM) in the assay with S. pneumoniae ATCC 49619 (S. pneumoniae ATCC 49619). Moreover, the MIC is > 64 µg/mL in the assay with K. pneumoniae ATCC 10031 (setting [4]), > 64 µg/mL with E. coli ATCC 25922 (setting [5]), > 64 µg/mL in the assay on H. influenzae ATCC 49247 (setting [6]) and 8 µg/mL (≈ 17.3 µM) in the assay with S. pyogenes ATCC 19615 (S. pyogenes ATCC 19615).

Regarding `CCC[C@@H]1C[C@@H](C(=O)N[C@H]([C@@H]2CCC(O)C2O)[C@H]2OC(SC)[C@H](O)C(O)C2O)N(C)C1` (single isomer, unassigned) [FSA-217039b], the MIC with E. coli MP-9 ΔTolC is >64 µg/mL; against E. faecalis ATCC 29212 (E. faecalis ATCC 29212), >64 µg/mL; in the assay on S. aureus ATCC 29213 (S. aureus ATCC 29213) it was 4 µg/mL (≈ 8.65 µM); in assay [1] it was >64 µg/mL; in [2], 8 µg/mL (≈ 17.3 µM); with S. pneumoniae ATCC 49619 (S. pneumoniae ATCC 49619), 1 µg/mL (≈ 2.16 µM). Also, the MIC is >64 µg/mL in the assay with K. pneumoniae ATCC 10031, >64 µg/mL in the assay with E. coli ATCC 25922, >64 µg/mL against H. influenzae ATCC 49247 (H. influenzae ATCC 49247) and 0.5 µg/mL (≈ 1.08 µM) against S. pyogenes ATCC 19615 (S. pyogenes ATCC 19615).

For the compound `CCC[C@@H]1C[C@@H](C(=O)N[C@H](CO)[C@H]2OC(SC)[C@H](O)C(O)C2O)N(C)C1` (some centres unmarked) [FSA-214043, 8-norlincomycin], the MIC is 64 µg/mL (≈ 163 µM) in the assay with E. faecalis ATCC 29212 (setting [3]); 32 µg/mL (≈ 81.5 µM) in the assay with S. aureus ATCC 29213 (setting [7]); 4 µg/mL (≈ 10.2 µM) with S. pneumoniae ATCC 49619 (setting [8]); > 64 µg/mL with E. coli ATCC 25922 (setting [5]); 8 µg/mL (≈ 20.4 µM) in the assay on S. pyogenes ATCC 19615 (setting [9]).

For `CCC[C@@H]1C[C@@H](C(=O)N[C@H](CNc2ccc(-c3cncnc3)cc2)[C@H]2OC(SC)[C@H](O)C(O)C2O)N(C)C1` (some centres unmarked) [FSA-214080], the MIC with E. faecalis ATCC 29212 (setting [3]), in the assay on S. aureus ATCC 29213 (setting [7]), in the assay on S. pneumoniae ATCC 49619 (setting [8]), in the assay on E. coli ATCC 25922 (setting [5]) and in the assay on S. pyogenes ATCC 19615 (setting [9]) was > 64 µg/mL throughout.

With `CCC[C@@H]1C[C@@H](C(=O)N[C@H](CNC2CC2)[C@H]2OC(SC)[C@H](O)[C@H](O)C2O)N(C)C1` (some centres unmarked) [FSA-214082b], the MIC with E. faecalis ATCC 29212 (setting [3]), in the assay on S. aureus ATCC 29213 (setting [7]), in the assay with S. pneumoniae ATCC 49619 (setting [8]), in the assay with E. coli ATCC 25922 (setting [5]) and in the assay with S. pyogenes ATCC 19615 (setting [9]) was > 64 µg/mL throughout.

Regarding `CCC[C@@H]1C[C@@H](C(=O)N[C@H](CNCc2ccc(F)cc2)[C@H]2OC(SC)[C@H](O)C(O)C2O)N(C)C1` (some centres unmarked) [FSA-214084], the MIC in the assay with E. faecalis ATCC 29212 (setting [3]), in the assay with S. aureus ATCC 29213 (setting [7]), in the assay with S. pneumoniae ATCC 49619 (setting [8]), with E. coli ATCC 25922 (setting [5]) and in the assay on S. pyogenes ATCC 19615 (setting [9]) was > 64 µg/mL in each case.

Turning to `CCC[C@@H]1C[C@@H](C(=O)N[C@H](CNc2ccccc2)[C@H]2OC(SC)[C@H](O)C(O)C2O)N(C)C1` (some centres unmarked) [FSA-214088], the MIC in the assay on E. faecalis ATCC 29212 (setting [3]), in the assay on S. aureus ATCC 29213 (setting [7]), in the assay on S. pneumoniae ATCC 49619 (setting [8]), with E. coli ATCC 25922 (setting [5]) and in the assay on S. pyogenes ATCC 19615 (setting [9]) was > 64 µg/mL throughout.

Source of the values: patent US11566039B2, “Lincosamide antibiotics and uses thereof” (President and Fellows of Harvard College, priority 2017, dated 2023).
